# The source made the active and inactive calls. No cut-off for these calls is given here.
# Tests used:
# [1] = AUC in mouse plasma at 2 mg/kg, iv by LC/MS/MS analysis; assay type: ADME, organism-based
# [2] = molecular target: T1, Peroxisome proliferator-activated receptor alpha (Homo sapiens) (UniProt Q07869); test: Activity at PPARalpha (unknown origin)
# T1 sequence (whole entry): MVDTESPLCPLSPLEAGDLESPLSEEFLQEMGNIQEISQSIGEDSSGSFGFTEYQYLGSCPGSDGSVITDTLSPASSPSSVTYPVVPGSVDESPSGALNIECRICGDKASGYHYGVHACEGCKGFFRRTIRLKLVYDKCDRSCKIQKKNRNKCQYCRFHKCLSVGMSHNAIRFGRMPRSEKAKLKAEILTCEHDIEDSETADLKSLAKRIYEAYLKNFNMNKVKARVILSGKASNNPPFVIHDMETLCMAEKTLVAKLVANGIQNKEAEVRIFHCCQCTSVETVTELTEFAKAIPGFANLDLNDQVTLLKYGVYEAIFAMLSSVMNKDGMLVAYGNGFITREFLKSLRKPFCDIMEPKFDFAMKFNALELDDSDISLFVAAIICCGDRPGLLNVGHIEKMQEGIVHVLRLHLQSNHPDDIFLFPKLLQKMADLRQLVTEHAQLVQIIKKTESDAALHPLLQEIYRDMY
# [3] = AUC in rhesus monkey plasma at 0.5 mg/kg, iv by LC/MS/MS analysis; assay type: ADME, organism-based, Macaca mulatta
# [4] = Volume of distribution at steady state in rat plasma at 0.1 mg/kg administered as iv casette dose by LC/MS/MS analysis; assay type: ADME, organism-based; details: read-out: Vdss
# [5] = molecular target: T2, Free fatty acid receptor 4 (Homo sapiens) (UniProt Q5NUL3); test: Agonist activity at human GPR120 short isoform expressed in CHOK1 cells assessed as increase in IP1 accumulation at 10 uM after 60 mins by HTRF assay; assay type: functional, cell-based; details: CHO-K1
# T2 sequence (whole entry): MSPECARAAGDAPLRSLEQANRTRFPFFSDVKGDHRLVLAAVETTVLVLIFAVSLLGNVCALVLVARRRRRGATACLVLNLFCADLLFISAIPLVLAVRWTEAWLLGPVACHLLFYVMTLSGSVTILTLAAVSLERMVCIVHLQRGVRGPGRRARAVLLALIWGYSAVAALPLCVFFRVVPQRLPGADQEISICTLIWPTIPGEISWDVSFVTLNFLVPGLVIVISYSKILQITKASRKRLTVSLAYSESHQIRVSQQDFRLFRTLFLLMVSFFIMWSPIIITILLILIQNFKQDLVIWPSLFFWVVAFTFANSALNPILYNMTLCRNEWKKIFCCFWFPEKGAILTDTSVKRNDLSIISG
# [6] = Protein binding in mouse plasma at 2 mg/kg, iv or 30 mg/kg, po by LC/MS/MS analysis; assay type: ADME, organism-based; details: read-out: PPB (converted)
# [7] = Volume of distribution at steady state in rhesus monkey plasma at 0.5 mg/kg, iv or 1 mg/kg, po by LC/MS/MS analysis; assay type: ADME, organism-based, Macaca mulatta; details: read-out: Vdss
# [8] = Oral bioavailability in rat plasma at 2 mg/kg by LC/MS/MS analysis; assay type: ADME, organism-based
# [9] = Mean residence time in rat plasma at 1 mg/kg, iv or 2 mg/kg, po by LC/MS/MS analysis; assay type: ADME, organism-based
# [10] = molecular target: Free fatty acid receptor 1 (Homo sapiens, UniProt O14842); test: Agonist activity at human GPR40 expressed in HEK293 cells assessed as increase in IP1 accumulation after 60 mins by HTRF assay; assay type: functional, cell-based
# [11] = Intrinsic clearance in mouse plasma at 2 mg/kg, iv or 30 mg/kg, po by LC/MS/MS analysis; assay type: ADME, organism-based; details: in vivo
# [12] = molecular target: T3, Free fatty acid receptor 4 (Homo sapiens, UniProt Q5NUL3); test: Agonist activity at human GPR120 short isoform expressed in CHOK1 cells assessed as increase in IP1 accumulation after 60 mins by HTRF assay; assay type: functional, cell-based, CHO-K1
# T3 sequence (Q5NUL3 whole entry): T2 sequence (whole entry)
# [13] = molecular target: Voltage-dependent L-type calcium channel subunit alpha-1C (Homo sapiens, UniProt Q13936); test: Inhibition of Cav1.2 (unknown origin)
# [14] = Terminal half life in rat plasma at 0.1 mg/kg administered as iv casette dose by LC/MS/MS analysis; assay type: ADME, organism-based; details: read-out: beta t1/2 (converted)
# [15] = Clearance in rhesus monkey plasma at 0.5 mg/kg, iv or 1 mg/kg, po by LC/MS/MS analysis; assay type: ADME, organism-based, Macaca mulatta
# Mus musculus [16] = test: Glucose lowering effect in C57BL/6 transverse aortic constriction mouse assessed as reduction in blood glucose at 3 to 30 mg/kg, po via gavage pretreated for 60 mins followed by dextrose challenge measured up to 120 mins post glucose challenge by OGTT; assay type: functional, organism-based
# [17] = Terminal half life in rhesus monkey plasma at 0.5 mg/kg, iv or 1 mg/kg, po by LC/MS/MS analysis; assay type: ADME, organism-based, Macaca mulatta; details: read-out: beta t1/2 (converted)
# [18] = Mean residence time in rhesus monkey plasma at 0.5 mg/kg, iv or 1 mg/kg, po by LC/MS/MS analysis; assay type: ADME, organism-based, Macaca mulatta
# Mus musculus [19] = test: Glucose lowering effect in C57BL/6 transverse aortic constriction mouse assessed as reduction in blood glucose pretreated for 60 mins via oral gavage followed by dextrose challenge measured up to 120 mins post glucose challenge by OGTT; assay type: functional
# Cytochrome P450 3A4 = Cytochrome P450 3A4 (Homo sapiens, UniProt P08684); test: Inhibition of human CYP3A4; assay type: ADME
# [20] = Clearance in mouse plasma at 2 mg/kg, iv or 30 mg/kg, po by LC/MS/MS analysis; assay type: ADME, organism-based
# [21] = Plasma concentration in C57BL/6 transverse aortic constriction mouse at 30 mg/kg, po via gavage measured at 3 hrs; assay type: ADME, organism-based; details: C57BL/6, mouse
# [22] = Clearance in rat plasma at 0.1 mg/kg administered as iv casette dose by LC/MS/MS analysis; assay type: ADME, organism-based
# [23] = Terminal half life in rat plasma at 1 mg/kg, iv or 2 mg/kg, po by LC/MS/MS analysis; assay type: ADME, organism-based; details: read-out: beta t1/2 (converted)
# [24] = AUC in rat plasma at 1 mg/kg, iv by LC/MS/MS analysis; assay type: ADME, organism-based
# [25] = molecular target: T4, Peroxisome proliferator-activated receptor delta (Homo sapiens) (UniProt Q03181); test: Activity at PPARdelta (unknown origin)
# T4 sequence (whole entry): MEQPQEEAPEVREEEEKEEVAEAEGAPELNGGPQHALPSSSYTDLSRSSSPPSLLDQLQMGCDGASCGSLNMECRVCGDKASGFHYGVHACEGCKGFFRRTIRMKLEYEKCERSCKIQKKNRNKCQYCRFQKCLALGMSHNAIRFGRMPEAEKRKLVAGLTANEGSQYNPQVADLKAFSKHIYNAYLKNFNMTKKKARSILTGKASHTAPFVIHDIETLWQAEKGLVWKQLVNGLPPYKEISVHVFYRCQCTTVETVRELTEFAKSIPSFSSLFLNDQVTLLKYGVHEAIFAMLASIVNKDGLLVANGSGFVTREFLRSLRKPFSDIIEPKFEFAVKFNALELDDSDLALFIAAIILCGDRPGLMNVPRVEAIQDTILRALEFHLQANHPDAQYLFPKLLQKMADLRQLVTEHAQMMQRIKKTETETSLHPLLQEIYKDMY
# Chain of Voltage-dependent L-type calcium channel subunit alpha-1C (Q13936 whole entry): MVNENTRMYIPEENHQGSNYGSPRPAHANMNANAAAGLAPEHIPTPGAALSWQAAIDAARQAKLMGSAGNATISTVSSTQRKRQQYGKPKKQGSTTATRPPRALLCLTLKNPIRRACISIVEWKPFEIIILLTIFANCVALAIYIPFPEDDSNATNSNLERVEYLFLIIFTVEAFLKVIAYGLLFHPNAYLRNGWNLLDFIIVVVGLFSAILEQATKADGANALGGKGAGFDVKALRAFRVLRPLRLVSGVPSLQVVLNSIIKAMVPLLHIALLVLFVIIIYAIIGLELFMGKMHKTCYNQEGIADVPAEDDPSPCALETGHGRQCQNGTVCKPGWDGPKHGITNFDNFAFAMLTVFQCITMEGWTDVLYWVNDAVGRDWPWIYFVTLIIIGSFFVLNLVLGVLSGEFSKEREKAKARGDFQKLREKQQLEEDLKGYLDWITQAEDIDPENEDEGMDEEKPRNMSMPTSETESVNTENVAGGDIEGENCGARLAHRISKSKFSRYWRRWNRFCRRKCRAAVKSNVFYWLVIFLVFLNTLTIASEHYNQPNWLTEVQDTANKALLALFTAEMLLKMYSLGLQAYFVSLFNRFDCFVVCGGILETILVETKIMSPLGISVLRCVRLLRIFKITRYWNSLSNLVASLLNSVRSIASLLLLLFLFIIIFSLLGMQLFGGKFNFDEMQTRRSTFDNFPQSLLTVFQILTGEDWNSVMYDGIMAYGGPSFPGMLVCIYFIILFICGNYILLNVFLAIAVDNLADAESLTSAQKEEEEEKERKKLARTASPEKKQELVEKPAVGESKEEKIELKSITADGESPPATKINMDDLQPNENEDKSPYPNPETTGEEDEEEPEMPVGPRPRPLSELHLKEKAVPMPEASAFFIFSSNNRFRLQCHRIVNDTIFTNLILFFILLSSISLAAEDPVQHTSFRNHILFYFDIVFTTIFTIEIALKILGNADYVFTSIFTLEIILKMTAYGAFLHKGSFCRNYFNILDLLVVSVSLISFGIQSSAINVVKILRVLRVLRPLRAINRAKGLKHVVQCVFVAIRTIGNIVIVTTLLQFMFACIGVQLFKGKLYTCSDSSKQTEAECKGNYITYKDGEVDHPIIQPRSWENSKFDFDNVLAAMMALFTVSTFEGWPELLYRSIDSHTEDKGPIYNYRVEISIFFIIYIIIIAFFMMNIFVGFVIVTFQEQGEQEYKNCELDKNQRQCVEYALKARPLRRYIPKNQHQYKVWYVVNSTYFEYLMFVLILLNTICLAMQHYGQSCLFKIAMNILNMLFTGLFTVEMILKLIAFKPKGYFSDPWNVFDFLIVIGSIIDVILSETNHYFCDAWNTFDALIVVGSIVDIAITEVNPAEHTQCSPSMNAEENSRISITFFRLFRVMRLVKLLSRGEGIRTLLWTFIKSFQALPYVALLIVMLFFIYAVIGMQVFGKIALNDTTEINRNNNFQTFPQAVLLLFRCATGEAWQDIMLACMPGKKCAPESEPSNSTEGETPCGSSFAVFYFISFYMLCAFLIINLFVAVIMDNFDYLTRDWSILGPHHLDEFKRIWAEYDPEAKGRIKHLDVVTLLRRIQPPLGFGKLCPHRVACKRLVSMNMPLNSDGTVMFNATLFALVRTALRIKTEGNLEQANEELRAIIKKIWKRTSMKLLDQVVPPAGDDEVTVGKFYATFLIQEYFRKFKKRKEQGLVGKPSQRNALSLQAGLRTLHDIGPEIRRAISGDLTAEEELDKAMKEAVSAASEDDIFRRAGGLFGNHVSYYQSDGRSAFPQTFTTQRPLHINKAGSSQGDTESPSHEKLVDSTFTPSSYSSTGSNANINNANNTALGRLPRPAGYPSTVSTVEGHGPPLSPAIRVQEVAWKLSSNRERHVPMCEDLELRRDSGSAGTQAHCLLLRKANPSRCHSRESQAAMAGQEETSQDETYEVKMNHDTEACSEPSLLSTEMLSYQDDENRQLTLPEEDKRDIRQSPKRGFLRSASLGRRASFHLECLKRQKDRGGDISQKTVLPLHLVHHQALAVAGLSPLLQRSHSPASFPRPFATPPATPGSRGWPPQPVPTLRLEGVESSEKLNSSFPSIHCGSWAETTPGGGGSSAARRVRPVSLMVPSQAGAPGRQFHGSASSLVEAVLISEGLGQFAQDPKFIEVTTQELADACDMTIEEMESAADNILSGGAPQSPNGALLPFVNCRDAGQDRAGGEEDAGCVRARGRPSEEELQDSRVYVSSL
# Chain of Cytochrome P450 3A4 (P08684 whole entry): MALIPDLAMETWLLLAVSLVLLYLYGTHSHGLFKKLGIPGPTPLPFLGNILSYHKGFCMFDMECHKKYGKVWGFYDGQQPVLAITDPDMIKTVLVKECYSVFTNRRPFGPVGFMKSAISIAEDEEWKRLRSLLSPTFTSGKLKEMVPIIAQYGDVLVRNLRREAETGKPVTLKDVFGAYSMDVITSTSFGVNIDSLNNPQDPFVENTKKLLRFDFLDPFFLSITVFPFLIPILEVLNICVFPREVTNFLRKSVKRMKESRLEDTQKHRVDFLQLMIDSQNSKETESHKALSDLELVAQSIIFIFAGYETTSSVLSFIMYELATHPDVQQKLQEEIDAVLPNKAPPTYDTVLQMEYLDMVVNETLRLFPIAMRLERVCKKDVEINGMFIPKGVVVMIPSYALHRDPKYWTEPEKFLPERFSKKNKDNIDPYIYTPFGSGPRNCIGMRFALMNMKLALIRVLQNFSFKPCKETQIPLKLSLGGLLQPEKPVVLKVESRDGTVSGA
# Chain of Free fatty acid receptor 1 (O14842 whole entry): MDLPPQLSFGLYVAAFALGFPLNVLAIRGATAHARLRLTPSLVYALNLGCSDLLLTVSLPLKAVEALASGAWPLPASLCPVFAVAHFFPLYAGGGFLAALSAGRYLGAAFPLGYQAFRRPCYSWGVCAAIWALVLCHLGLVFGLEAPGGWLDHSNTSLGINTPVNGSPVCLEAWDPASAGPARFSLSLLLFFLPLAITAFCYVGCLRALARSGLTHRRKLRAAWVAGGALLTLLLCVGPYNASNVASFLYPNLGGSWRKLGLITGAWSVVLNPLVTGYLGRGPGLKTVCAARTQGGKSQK
smiles,measurement,setting,value
CO[C@H]1C[C@H](Oc2cc(F)c(F)c(-c3ccc4c(c3)CC[C@H](CCC(=O)O)O4)n2)C1,AUC,[1],8.1 µM·h
same,Activity,[2],> 10 µM
same,AUC,[3],57.8 µM·h
same,Vd,[4],0.24 L/kg
same,Activity,[5],> 50%
same,fraction unbound,[6],0.0033
same,Vd,[7],0.27 L/kg
same,bioavailability,[8],93%
same,MRT,[9],4.6 h
same,EC50,[10],> 10 µM
same,CL,[11],3400 mL/min/kg
same,EC50,[12],0.035 µM
same,IC50,[13],28 µM
same,half-life,[14],2.1 h
same,clearance,[15],0.33 mL/min/kg
same,Activity,Mus musculus [16],Active
same,half-life,[17],9.8 h
same,MRT,[18],13.5 h
same,Activity,Mus musculus [19],Dose-dependent effect
same,minimal effective dose,"Mus musculus [19]; C57BL/6, Blood, read-out: MED",10 mg/kg
same,IC50,Cytochrome P450 3A4,> 50 µM
same,clearance,[20],9.9 mL/min/kg
same,concentration at 3 h,[21],3.12 µM
same,clearance,[22],1.3 mL/min/kg
same,half-life,[23],4.6 h
same,AUC,[24],35.9 µM·h
same,Activity,[25],> 10 µM
